One assay addresses T1, NK1R (Mus musculus, UniProt P30548).
T1 construct: NK1R is expressed by both corneal epithelial and stem cell-like cells; from tissue; host or cells: cornea / ocular surface of live C57BL6/N mice (topical dosing in vivo)
As to the kind of experiment: Epithelial wound closure by corneal fluorescein staining, stem cell deficiency model (Example 2). Type of assay: in vivo, mice. The source says:
Eight-week-old male mice C57BL6/N (Charles River, Calco, Italy) (WT mice, n=18) and Tac1-deficient B6.Cg-Tac1tm1Bbm/J (Jackson Laboratories, Bar Harbor, Me., USA) (TAC1-KO mice, n=18) were used in all experiments. TAC1-KO mice are homozygous null for the Tac1 gene. […] The corneal thickness and transparency as well as the corneal nerve length are similar to C57BL/6 mice [Barbariga M, Rabiolo A, Fonteyne P, Bignami F, Rama P, Ferrari G. The effect of aging on nerve morphology and substance P expression in mouse and human corneas. Investig Ophthalmol Vis Sci 2018; 59:5329-35. https://doi.org/10.1167/iovs.18-24707.]. […]
Every day after disepithelization, in vivo corneal photographs were taken using a digital camera (EOS 30D; Canon, Tokyo, Japan) attached to a slit-lamp microscope (Photoslitmap 40 SL-P; Zeiss, Oberkochen, Germany) to assess corneal condition. Corneal opacity was evaluated using a grading score (from 0-4; 0=completely clear, 4=completely opaque) previously described [Yoeruek E, Deuter C, Gieselmann S, Saygili O, Spitzer M S, Tatar O, et al. Long-term visual acuity and its predictors after cataract surgery in patients with uveitis. […] The percentage of green fluorescent area on the total corneal area was evaluated by analyzing images by Image J software (National Institutes of Health, Bethesda, Md., USA).

For the next assay, the system named is γH2AX. As to the kind of experiment: Western blot of γH2AX as senescence marker in corneal epithelium, disepithelization model (Example 1). Type of assay: in vivo, mice. As to the method:
Eight-week-old C57BL6/N (Charles River, Calco, Italy) (WT mice, n=8) and B6.Cg-Tac1tm1Bbm/J (Jackson Laboratories, Bar Harbor, Me., USA) (TAC1-KO mice, n=8) male mice were used in all experiments. Each animal was anesthetized with intraperitoneal injection of tribromoethanol (250 mg/kg) and a topical anesthetic was applied to their ocular surface prior to the surgical procedure. Disepithelization was performed based on the model previously described, using a blunt spatula to scrap the entire corneal epithelium from limbus to limbus. After wounding, eyes were treated with ophthalmic moxifloxacin 1 time/day for 1 week to […]. Fourteen days after disepithelization mice were euthanized using carbon dioxide inhalation and subsequent cervical dislocation. Corneas were collected for immunostaining and western blot analysis. […]
For Western Blot analysis, corneal epithelium was isolated after 30 minutes of EDTA treatment (Sigma-Aldrich Corp., St. Louis, Mo., USA) at 37° C. […] Bands were quantified using Image Lab™ software (Version 6.0.1, Bio-Rad Laboratories, Hercules, Calif., USA).
The expression of p70 S6 Kinase (P70S6), phospho-p70 S6 Kinase (pP70S6), and phospho-histone 2-AX (γH2AX) was evaluated by Western Blot, as previously described in section 2.9. […] Bands were quantified using Image J software (National Institutes of Health, Bethesda, Md., USA).

“Also recorded” adds a separate entry of the source.

T1 sequence (P30548 whole entry): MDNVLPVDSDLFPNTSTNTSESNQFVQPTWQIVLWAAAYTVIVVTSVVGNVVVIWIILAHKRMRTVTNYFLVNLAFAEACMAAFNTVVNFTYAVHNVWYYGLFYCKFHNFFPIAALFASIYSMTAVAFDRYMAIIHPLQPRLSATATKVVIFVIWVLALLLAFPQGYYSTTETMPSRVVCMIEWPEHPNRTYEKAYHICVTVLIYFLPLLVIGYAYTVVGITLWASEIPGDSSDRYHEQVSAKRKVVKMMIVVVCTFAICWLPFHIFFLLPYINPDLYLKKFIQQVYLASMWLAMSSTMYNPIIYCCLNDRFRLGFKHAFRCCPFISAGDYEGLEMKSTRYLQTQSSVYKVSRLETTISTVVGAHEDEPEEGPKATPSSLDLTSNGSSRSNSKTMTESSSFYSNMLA

As to `C[C@@H](O[C@H]1OCCN(Cc2nc(=O)n(P(=O)(O)O)[nH]2)[C@H]1c1ccc(F)cc1)c1cc(C(F)(F)F)cc(C(F)(F)F)c1` [Fosaprepitant, [3-{[(2R,3S)-2-[(1R)-1-[3,5-bis(trifluoromethyl)phenyl]ethoxy]-3-(4-fluorophenyl)morpholin-4-yl]methyl}-5-oxo-2H-1,2,4-triazol-1-yl]phosphonic acid], on NK1R (Fosaprepitant 0.1 mg/mL (FOSA 0.1) topically 4 times/day for 16 days), the “wound closure compared to WT” value is “did not show any improvement; also recorded: no improvement”. The “wound closure rate compared to WT” value on NK1R (Fosaprepitant 1 mg/mL (FOSA 1) topically 4 times/day for 16 days, from day five, p<0.05) was “significant improvement; also recorded: significant faster epithelial wound closure”. Besides, in the assay with γH2AX (Fosaprepitant 10 mg/mL (WT-FOSA), western blot), the “H2AX expression in comparison to WT (in words)” value is “decreased”. In addition, in the assay with γH2AX (Fosaprepitant 10 mg/mL topically four times a day for 14 days (WT-FOSA), p<0.05), the “decreased γH2AX expression in comparison to WT” value came out at 26%.

The values above are taken from patent US20230134843A1, “TREATMENT OF STEM CELL DEFICIENCY” (OSPEDALE SAN RAFFAELE S.R.L., priority 2020, published 2023).
